Earlier results, collected in paper PMC9981747, “A covalent BTK ternary complex compatible with targeted protein degradation” (Nature Communications, 2023).

Tests used:
[1] = set-up: method as in PMID 27274052; conditions: cited from earlier work
[2] = set-up: method as in PMID 31879210; conditions: 1 mg/kg IV; cited from earlier work

SMILES: Cc1ncsc1-c1ccc([C@H](C)NC(=O)[C@@H]2C[C@@H](O)CN2C(=O)[C@@H](NC(=O)COCCCOCCNC(=O)C[C@@H]2N=C(c3ccc(Cl)cc3)c3c(sc(C)c3C)-n3c(C)nnc32)C(C)(C)C)cc1 [ARV-771]
- concentrations in sub-chronic tumor growth inhibition study ([1]; in 4 of 8 rodents tested): > 2000 nM
- Cmax ([1]; single 10 mg/kg sc dose, read-out: plasma Cmax): ~1700 nM

SMILES: Nc1ncnc2c1c(-c1ccc(Oc3ccccc3)cc1)nn2C1CCN(CCOCCOCCOc2ccc3c(c2)CN(C2CCC(=O)NC2=O)C3=O)CC1 (stereo not drawn) [SJF620]
- exposure [2]: micromolar exposures
